Data reported in patent US20150051246A1 (priority 2013, published 2015).

Assays:
male C57BL/6NCrl mice = test: Object Location Task (OLT), spatial memory, 24 h retention interval; type: in vivo; details: for d2 index, discrimination index for T2: 3 h after T1, 24 h interval
Source text: The objective of this study was to evaluate the cognitive improvement effects of Roflumilast on spatial memory employing Object Location Task (OLT) in male C57BL/6NCrl mice. Roflumilast was compared with data of the already established PDE4 inhibitor Rolipram in the same model.
Twenty-four 7 month-old male C57BL/6NCrl mice (Charles River, L'Arbresle, France) were used (average body weights: 27.6 g). The animals were kept under a 12/12-hour light/dark cycle (lights on from 07.00 pm to 07.00 am) with free access to food and water. All testing was done between 09.00 am and maximally 06.00 pm.
Both rolipram (Sigma-Aldrich St. Louis, USA; MW 275.34) and roflumilast (Biocrea, Radebeul, Germany; MW 403.21) were dissolved in dimethylsulfoxide (DMSO) and kept at 4° C.; this stock solution was used for further dilutions in 0.5% methylcellulose. Each of rolipram and roflumilast is used in form of its free base. All injected solutions consisted of 0.5% methylcellulose with a fixed DMSO percentages (1.2%) (vehicle).
For the Object Location Task (OLT), doses of 0.01 mg/kg, 0.03 mg/kg and 0.1 mg/kg of Rolipram or Roflumilast or vehicle were administered subcutaneously (s.c.). Based on previous findings, PDE4 inhibitor single administration was performed 3 hours after the first trial as this has an optimum effect on object memory performance. The injection volume was 5 μl/g.
The OLT apparatus consisted of a circular arena, 40 cm in diameter. Half of the 40 cm transparent polyvinyl chloride wall was covered from the outside with white paper. Two objects were placed symmetrically about 10 cm away from the wall on the separation line, between the transparent and covered side of the arena. Four different sets of objects were available: (1) a cone made of brass (maximal diameter 6 cm and total height 3.8 cm), (2) a transparent glass bottle (diameter 2.7 cm, height 8.5 cm) filled with sand and water, (3) a massive metal cube (2.5 cm×5 cm×7.5 cm) with two holes (diameter 1.5 cm), and (4) a massive aluminum cube with a tapering top (4.5 cm×4.5 cm×8.5 cm).
A testing session comprised two trials of 4 minutes. Before each trial, mice were placed in an empty Makrolon cage (incubation cage) for the same amount of time as the trial (4 min). During the first trial (T1), two identical objects were placed symmetrically about 10 cm away from the wall on the separation line between the transparent and covered side of the arena. After the first exploration period of 4 min, the mouse was put back in its home cage. Mice then received treatment at 3 hours post T1. Subsequently, after a predetermined delay interval (24 h), the mouse was placed in the apparatus for the second trial of 4 min (T2). Two identical objects as in T1 were used; one object was placed in the previously used position, whereas the other was placed in a novel position. The novel position of the object could either be a fixed distance towards the front or a fixed distance towards the back of the arena for both objects. The times spent exploring each object during T1 and T2 were recorded manually using a personal computer. All objects and locations were used in a balanced manner to exclude possible object and/or location preferences. To avoid olfactory cues, the objects were thoroughly cleaned with 70% ethanol after each trial. The testing order of conditions was determined randomly.
The measurements reflected the time spent by the mice in exploring each object during T1 and T2. The time spent in exploring the two identical samples in T1 were represented by ‘a1’ and ‘a2’, respectively. The time spent in exploring the sample and the new object in T2 were represented by ‘a’ and ‘b’, respectively. From these exploration times the following variables were calculated: e1, e2, and d2 (Table 1). The d2 index is a relative measure of discrimination corrected for exploratory activity. […]

[1] = test system: 60 to 80 years old subjects; test: Bond-Lader Visual Analogue Scales (BL-VAS) in elderly subjects; type: in vivo, human; details: 45 min after the low dose
Source text: Bond-Lader Visual Analogue Scales (BL-VAS): The BL-VAS (Bond A and Lader M, 1974; Br J Med Psycho) Vol 47, pp. 211-218) will be used in order to assess alertness, calmness, and contentedness. BL-VAS consists of 16 100 mm visual analogue scales anchored by antonyms (e.g. Alert-Drowsy, Lethargic-Energetic; etc) and be applied on testing Day 1 and 2 of each treatment period.
An interim analysis has been performed based on the data of 9 subjects of the Impaired Elderly group and 4 subjects of the Healthy Elderly group. For this purpose, cognitive battery test scores (VLT, SMT, Stroop task and BL-VAS) and concentrations of roflumilast and roflumilast-N-oxide in plasma have been analysed and summarized by dose over each scheduled sampling time using descriptive statistics.

Compound: O=C(Nc1c(Cl)cncc1Cl)c1ccc(OC(F)F)c(OCC2CC2)c1 [roflumilast, N-(3,5-dichloropyridin-4-yl)-3-cyclopropylmethoxy-4-difluoromethoxybenzamide]
- d2 index, discrimination index for T2 (male C57BL/6NCrl mice; 0.01 mg/kg s.c.): 0.04
- d2 index, discrimination index for T2 (male C57BL/6NCrl mice; 0.03 mg/kg s.c.): 0.34
- d2 index, discrimination index for T2 (male C57BL/6NCrl mice; 0.1 mg/kg s.c.): 0.00
- dose effective in improving spatial memory (male C57BL/6NCrl mice; s.c.): 0.03 mg/kg
- effect on spatial memory (in words) (male C57BL/6NCrl mice; single subcutaneous 0.01 mg/kg): nearly no effect
- effect on spatial memory (in words) (male C57BL/6NCrl mice; single subcutaneous 0.03 mg/kg): pronounced effect on spatial memory
- effect on spatial memory (in words) (male C57BL/6NCrl mice; single subcutaneous 0.1 mg/kg): completely no effect
- (subjective) alertness in comparison with placebo, BL-VAS scores [1]: significantly higher (subjective) alertness
